Broadly, the IC50 is the point on the concentration scale where inhibition reaches its midpoint. High values mean a need for much substance, low ones inhibition by little substance.

The source of these data is patent publication US8809549B2, “Esters of bendamustine and related compounds, and medical use thereof” (Arevipharma GmbH, priority 2012, dated 2014).

The subject of series [1] is U-937 (histocytic lymphoma, ATCC CRL-1593.2). The series is described as follows: Cytotoxicity, MTT assay, U-937. In kind it is cell-based, human. On the procedure:
(§1) For loosely adherent cells and cells growing in suspension, the MTT-assay^[a] was used. Suspension cells were seeded at a density of 8000 cells/well (100 μl). In case of suspension cells, 100 μl of medium, containing the test compounds bendamustine HCl and bendamustine mofetil ester (or bendamustine methyl ester), were added directly after seeding of the cells. Loosely adherent cells were seeded at a density of 5000 cells/well (100 μl) and treated as described for the crystal violet assay.
(§2) In all cases, one plate was measured at the time, when substances were added (t0-plate). The MTT-(2.5 mg/ml) solution (PBS) was freshly prepared for each measurement. 20 μl of this solution were added per well (100 μl) of each plate at subsequent days. Incubation period with MTT was 3 hours at 37° C. After incubation, the plates were centrifuged, and the medium was removed to a residual volume of 50 μl per well. Then, 100 μl of DMSO were added, and the plates were shaken for 1 hour. Absorbance was measured at a wavelength of 580 nm.
(§3) Eight different human cancer cell lines were treated according to the above general procedure for comparative determination of cytotoxicity of bendamustine-HCl and bendamustine mofetil ester.
In general terms: Tetrazolium dyes change colour on reduction, which living cells bring about.

Series [2] relates to LnCap clone FGC (prostate cancer, metastasis of a subclavicular lymph node, ATCC CRL-1740). The series is described as follows: Cytotoxicity, MTT assay, LnCap clone FGC. In kind it is cell-based, human. Here is the method: as §1, §2, §3
Series [3] relates to Jurkat (acute T-cell leukemia, ATCC TIB-152). The series is described as follows: Cytotoxicity, MTT assay, Jurkat. The format is cell-based, human. On the procedure:
as §1, §2, §3

Series [4] concerns NCl-H460 (large cell bronchial carcinoma, ATCC HTB-177). The series is described as follows: Cytotoxicity, crystal violet assay, NCl-H460. The format is cell-based, human. On the procedure: (§4) For the determination of cytotoxicity two different assays were used depending on the characteristics of the treated cells. For adherently growing cells the crystal violet assay^[b] was used. Instead of complete removal of the conditioned culture medium, 100 μl of fresh medium, containing a two-fold higher concentration of the test compounds than the desired final concentration were added 2-3 days after seeding the cells at a density of about 5000 cells/well (100 μl).
as §3

In series [5] the test system is SK-ES1 (Ewing sarcoma, ATCC HTB-86). The series is described as follows: Cytotoxicity, MTT assay, SK-ES1. The format is cell-based, human. Here is the method:
as §1, §2, §3

Series [6] relates to human malignant tumour cell lines. The series is described as follows: Comparative cytotoxicity, all cell lines investigated. Particulars: against all human malignant tumour cell lines investigated (Table 1). The format is cell-based. On the procedure: as §4, §1
In all cases, one plate was measured at the time, when substances were added (t0-plate). The MTT-(2.5 mg/ml) solution (PBS) was freshly prepared for each measurement. 20 μl of this solution were added per well (100 μl) of each plate at subsequent days. Incubation period with MTT was 3 hours at 37° C. […] Absorbance was measured at a wavelength of 580 nm. […]

The subject of series [7] is MG-63 (osteosarcoma, ATCC CRL-1427). The series is described as follows: Cytotoxicity, crystal violet assay, MG-63. In kind it is cell-based, human. On the procedure:
as §4, §3

Series [8] concerns HEL92.1.7 (erythroleukemia, ATCC TIB-180). The series is described as follows: Cytotoxicity, MTT assay, HEL92.1.7. In kind it is cell-based, human. Here is the method: as §1, §2, §3
The test system of series [9] is Capan-1 (pancreatic carcinoma, ATCC HTB-80). The series is described as follows: Cytotoxicity, crystal violet assay, Capan-1. The format is cell-based, human. On the procedure: as §4, §3
Setting [10] is: Homo sapiens, long-term exposure (96 h), MTT assay, errors as 95% confidence intervals.

As for `Cn1c(CCCC(=O)OCCN2CCOCC2)nc2cc(N(CCCl)CCCl)ccc21` [bendamustine mofetil ester, 2-morpholinoethyl 4-(5-(bis(2-chloroethyl)amino)-1-methyl-1H-benzo[d]imidazol-2-yl)butanoate], the 50% inhibitory concentration (IC50) turned out to be 4.2 ± 0.9 µM in series [1] (Homo sapiens, U-937, long-term exposure (96 h), MTT assay, errors as 95% confidence intervals); 2.1 ± 0.6 µM in series [2] (setting [10]); 4.2 ± 0.3 µM in series [3] (setting [10]); 8.6 ± 0.6 µM in [4] (Homo sapiens, NCl-H460, long-term exposure (96 h), crystal violet assay, errors as 95% confidence intervals); 0.9 ± 0.2 µM in series [5] (Homo sapiens, SK-ES1, long-term exposure (96 h), MTT assay, errors as 95% confidence intervals); 3.4 ± 0.7 µM in [7] (Homo sapiens, MG-63, long-term exposure (96 h), crystal violet assay, errors as 95% confidence intervals). Moreover, the IC50 in series [8] (Homo sapiens, HEL 92.1.7, HEL92.1.7, long-term exposure (96 h), MTT assay, errors as 95% confidence intervals) was 3.4 ± 0.4 µM; in [9] (Homo sapiens, Capan-1, long-term exposure (96 h), crystal violet assay, errors as 95% confidence intervals) it was 1.3 ± 0.3 µM. For the same compound, the “ratio (IC50 bendamustine-HCl / IC50 bendamustine mofetil ester)” value in series [1] (U-937, 96 h) is 21.9; in [2] (96 h) it was 34.1; in [3] (96 h), 10.1; in [4] (NCl-H460, 96 h), 10.4; in series [5] (SK-ES1, 96 h), 12.2; in [7] (MG-63, 96 h), 16.2. For the same compound, the “ratio (IC50 bendamustine-HCl / IC50 bendamustine mofetil ester)” value in series [8] (HEL92.1.7, 96 h) is 24.7; in series [9] (Capan-1, 96 h), 19.4. Further, the “cytotoxicity compared to bendamustine-HCl” value in [6] is listed as “remarkably enhanced cytotoxicity”.
